Results as given in patent US9504725B2, “Compositions and functional foods for treating and preventing obesity using polygonum cuspidatum butanol fraction and ethyl acetate fraction” (KOREA INSTITUTE OF ORIENTAL MEDICINE, priority 2009, dated 2016).

Columns and labels:
[1] = Inhibitory effect on short term absorption of lipid emulsions in animals (triglyceride after oral lipid emulsion); assay type: in vivo, male wistar rats
[2] = biological target: T1, porcine pancreatic lipase (Sus scrofa, UniProt P00591); assay: Inhibition of porcine pancreatic lipase activity (p-NPB hydrolysis); assay type: biochemical
T1 construct: purchased Sigma, St. Louis, Mo., USA
T1 sequence (P00591 1-450): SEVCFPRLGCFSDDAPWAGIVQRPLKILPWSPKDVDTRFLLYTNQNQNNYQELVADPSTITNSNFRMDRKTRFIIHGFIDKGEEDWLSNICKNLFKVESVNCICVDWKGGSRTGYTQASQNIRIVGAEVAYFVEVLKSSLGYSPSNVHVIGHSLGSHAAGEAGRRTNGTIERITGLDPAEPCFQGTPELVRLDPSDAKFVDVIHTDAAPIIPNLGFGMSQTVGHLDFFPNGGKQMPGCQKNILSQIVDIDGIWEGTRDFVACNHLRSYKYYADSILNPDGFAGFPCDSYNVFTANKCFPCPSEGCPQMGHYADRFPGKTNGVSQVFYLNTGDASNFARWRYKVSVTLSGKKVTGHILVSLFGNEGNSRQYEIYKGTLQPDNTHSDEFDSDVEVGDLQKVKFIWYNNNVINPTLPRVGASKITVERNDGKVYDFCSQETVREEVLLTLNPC

[3] = Obesity-preventive effect in high-fat diet-fed mice (body weight, fats, adipocyte size, serum lipids, fatty liver, insulin); assay type: in vivo, male C57BL/6 mice
[4] = high-fat feed mixed with drug (POCU 1%, Xenical 0.1%), 10 weeks

Oc1ccc(/C=C/c2cc(O)cc(O)c2)cc1 [Resveratrol, trans-resveratrol]
Concentration of serum triglyceride ([1]; 10 mg/kg oral with lipid emulsion, 0 h (before administration)): 147.0 ± 4.2 mg/dL | Concentration of serum triglyceride ([1]; 10 mg/kg oral with lipid emulsion, 1 h): 212.5 ± 14.0 mg/dL | Concentration of serum triglyceride ([1]; 10 mg/kg oral with lipid emulsion, 2 h): 219.3 ± 77.3 mg/dL | Concentration of serum triglyceride ([1]; 10 mg/kg oral with lipid emulsion, 3 h): 195.5 ± 25.9 mg/dL | Concentration of serum triglyceride ([1]; 10 mg/kg oral with lipid emulsion, 4 h): 193.2 ± 12.1 mg/dL | Concentration of serum triglyceride ([1]; 50 mg/kg oral with lipid emulsion, 0 h (before administration)): 146.1 ± 1.4 mg/dL | Concentration of serum triglyceride ([1]; 50 mg/kg oral with lipid emulsion, 1 h): 208.3 ± 31.0 mg/dL | Concentration of serum triglyceride ([1]; 50 mg/kg oral with lipid emulsion, 2 h): 228.0 ± 58.4 mg/dL | Concentration of serum triglyceride ([1]; 50 mg/kg oral with lipid emulsion, 3 h): 198.8 ± 62.3 mg/dL | Concentration of serum triglyceride ([1]; 50 mg/kg oral with lipid emulsion, 4 h): 183.7 ± 50.3 mg/dL | Concentration of serum triglyceride ([1]; 250 mg/kg oral with lipid emulsion, 2 h): 228.5 ± 8.4 mg/dL | inhibition at 50 µg/mL ([2]; 50 μg/mL, read-out: Inhibitory effect on pancreatic lipase activity (%)): 32.4 ± 3% | inhibition at 100 µg/mL ([2]; 100 μg/mL, read-out: Inhibitory effect on pancreatic lipase activity (%)): 47.2 ± 1.6% | IC50 ([2]; porcine pancreatic lipase, p-NPB substrate): 543 µM

CCCCCCCCCCC[C@@H](C[C@@H]1OC(=O)[C@H]1CCCCCC)OC(=O)[C@H](CC(C)C)NC=O [Xenical, tetrahydrolipstatin (orlistat)]
Concentration of serum triglyceride ([1]; 200 mg/kg oral with lipid emulsion, 0 h (before administration)): 159.6 ± 19.0 mg/dL | Concentration of serum triglyceride ([1]; 200 mg/kg oral with lipid emulsion, 1 h): 133.7 ± 11.3 mg/dL | Concentration of serum triglyceride ([1]; 200 mg/kg oral with lipid emulsion, 2 h): 124.4 ± 18.0 mg/dL | Concentration of serum triglyceride ([1]; 200 mg/kg oral with lipid emulsion, 3 h): 118.1 ± 24.5 mg/dL | Concentration of serum triglyceride ([1]; 200 mg/kg oral with lipid emulsion, 4 h): 120.9 ± 12.5 mg/dL | adipocyte size ([3]; H&E stained adipose tissue, high-fat diet group 125 μm): 75 μm | gonadal fat weight [3, 4]: 0.17 g | perirenal fat weight [3, 4]: 0.04 g | subcutaneous fat weight [3, 4]: 0.14 g | extent of body weight gain ([3]; high-fat feed mixed with drug, 10 weeks, high-fat diet group 10.9 g): 6.1 g
